Earlier results as cited in patent US6030942A, “Peptides peptide analogs peptidomimetics and other small molecules useful for inhibiting the activity of ribonucleotide reductase” (The Trustees of the University of Pennsylvania, priority 1998, dated 2000).
Square brackets hold non-standard residues; d marks the D form. Peptide text beside a SMILES is read from it. * marks the point of attachment. Asp(3,3-(CH2)4) = N[C@H](C(=O)O)C1(C(=O)O)CCCC1; Dibenzylacetyl = O=C(C(Cc1ccccc1)Cc1ccccc1)*; Leu(γ-Me)ol = CC(C)(C)C[C@@H](CO)N*; Tle = CC(C)(C)[C@H](N)C(=O)O; NMeV = CN[C@H](C(=O)O)C(C)C; Pyrrolidide = C1CCN(*)C1

How the values were obtained:
HSV type 2 = conditions: cell culture; read-out: EC50, replication of HSV type 2; cited from earlier work
HSV type 1 = conditions: cited from earlier work
HSV-1 = conditions: murine ocular model; cited from earlier work
HSV = conditions: cited from earlier work

Row | Compound | EC50 (HSV type 2) [µM] | Combination with acyclovir in cell culture (HSV type 1; HSV types 1 and 2) | EC50 (HSV type 1; cell culture, read-out: EC50, replication of HSV type 1) [µM] | Severity of HSV-1-induced keratitis (HSV-1) | Inhibition of viral growth in cell culture (HSV)
1 | CC(C)[C@@H](C(=O)N[C@H](C(=O)N[C@@H](CC(=O)N1CCCC1)C(=O)N[C@H](C(=O)N[C@H](CO)CC(C)(C)C)C1(C(=O)O)CCCC1)C(C)(C)C)N(C)C(=O)C(Cc1ccccc1)Cc1ccccc1 [BI-LD-1263] (Dibenzylacetyl-[NMeV][Tle]D(Pyrrolidide)[Asp(3,3-(CH2)4)]-{Leu(γ-Me)ol}) | 4 | synergistic effect | 3 | reduces the severity | 
2 | YAGAVVNDL |  |  |  |  | did not inhibit viral growth in cell culture
